Laboratory results reported in article PMC6098011, “Insights into degradation mechanism of N-end rule substrates by p62/SQSTM1 autophagy adapter” (Nature Communications, 2018).
Entries after “also recorded” stand apart in the source; their conditions may differ.

Assays:
[1] = target: T1, MBP-PB1-ZZ WT (p62 residues 1–181) (Homo sapiens, UniProt Q13501); experiment: FP binding assay, MBP-PB1-ZZ WT
T1 construct: The PB1-ZZ-domain of p62 (residues 1–181) WT and various mutants were expressed as MBP-fused forms; made in house; host or cells: Escherichia coli BL21(DE3)
T1 sequence (Q13501 1-181): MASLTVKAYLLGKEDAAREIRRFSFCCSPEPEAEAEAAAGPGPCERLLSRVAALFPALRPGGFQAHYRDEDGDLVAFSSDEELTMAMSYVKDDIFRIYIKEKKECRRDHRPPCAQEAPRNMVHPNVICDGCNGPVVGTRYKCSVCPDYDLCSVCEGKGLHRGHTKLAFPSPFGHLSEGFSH
Procedure: The PB1-ZZ-domain of p62 (residues 1–181) WT and various mutants were expressed as MBP-fused forms. […] The ZZ-domain (residues 122–181) WT and various mutants were expressed as GST-fused forms.
FITC-labeled R-BiP/GRP78 peptide and all mutant peptides were dissolved to 1 mM concentration in buffers (50 mM MES pH 6.0 [or 50 mM Tris pH 8.0], 100 mM NaCl, and 1 mM DTT) and sequentially diluted with binding buffer up to 100 nM in each 40 μL reaction well. Purified GST-ZZ, MBP-PB1-ZZ WT and the respective mutants were also serially diluted in binding buffer and mixed into each reaction well at a concentration ranging from 400 nM to 3 mM. […] A nonlinear graph of p62 construct concentration-dependent polarization was calculated and drawn using GraphPad Prism 7 software.

[2] = test system: degradation of R-BiP protein and p62 in HeLa cells; experiment: Cycloheximide-chase protein degradation assay; assay type: cell-based; conditions: HA-p62 and Ub-R-BiP transfected, chloroquine 30 μM, 16 hr, 50 μg/ml cycloheximide 16 hr, immunoblotting
Procedure: HeLa cells were cultured in DMEM (HyClone) containing 10% FBS (HyClone) and 1% penicillin/streptomycin (HyClone). Cells were transiently transfected with plasmids using Lipofectamine 2000 (Invitrogen) for mammalian expression. For protein degradation analysis, HeLa cells at 80% confluence were transiently transfected with plasmids expressing HA-p62 (either WT or mutants) and Ub-R-BiP. For the blocking of protein synthesis, cells were treated with 50 μg/ml cycloheximide (Sigma-Aldrich) for […] prior to cell harvesting. Cultured cells were pelleted by centrifugation and pellets were resuspended in phosphate-buffered saline (PBS). A volume of 150 μl was then mixed with 150 μl of 5X SDS-PAGE loading buffer (125 mM Tris-HCl pH 6.8, 4% SDS, 10% 2-mercaptoethanol and 20% glycerol). Each sample was heated for 5 min and 0.1 mg of total protein was subjected to Western blotting. Following antibodies were used in this study: rabbit monoclonal anti-p62 (Cell Signaling Technology, 8025, 1:1000), rabbit polyclonal anti-R-BiP (Abfrontier, AR02-PA0001, 1:1000), mouse monoclonal anti-β-actin (Sigma-Aldrich, A5441, 1:20,000), rat monoclonal anti-HA (Roche, 1867431, 1:20,000), mouse monoclonal anti-His-HRP (Santa Cruz, sc-8036 HRP, 1:20,000) and mouse monoclonal anti-MBP-HRP (NEB, E8038S, 1:2000).
Supplementary Figure 7. Degradation assay of R-BiP and p62 protein […]

Structure (SMILES): N=C(N)NCCC[C@H](N)C(=O)N[C@@H](CCC(=O)O)C(=O)N[C@@H](CCC(=O)O)C(=O)N[C@@H](CCC(=O)O)C(=O)N[C@@H](CC(=O)O)C(=O)N[C@@H](CCCCNC(=S)Nc1ccc2c(c1)C(=O)OC21c2ccc(O)cc2Oc2cc(O)ccc21)C(=O)O [R-BiP peptide]
- Binding (dissociation constant) ([1]; pH 4.5): not detected
- Binding (dissociation constant) ([1]; pH 5.0): not detected
- Binding (dissociation constant) ([1]; pH 8.5): not detected
- Binding (dissociation constant) ([1]; pH 9.0): not detected

Structure (SMILES): CCN(CC)CCCC(C)Nc1ccnc2cc(Cl)ccc12 (centres unmarked) [chloroquine]
- Degradation of R-BiP protein and p62 [2]: blocked; also recorded: not degraded
